PubChem BioAssay (NCI)
“And” between values parts separate entries of the source, which are not always exact repeats. Equal entries are not always repeated.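 Here, GI50 denotes the concentration required for 50% inhibition of growth. TGI marks complete inhibition of growth.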

Experiments:
Experiment in all cases: growth of human tumour cells (NCI), 384-well format
OVCAR-5 ovarian = test system: OVCAR-5 ovarian
HCT-15 colon = test system: HCT-15 colon
HS 578T breast = test system: HS 578T breast
M14 melanoma = test system: M14 melanoma
SR leukemia = test system: SR leukemia
HOP-92 NSCLC = test system: HOP-92 NSCLC
TK-10 renal = test system: TK-10 renal
A549 NSCLC = test system: A549 NSCLC
CCRF-CEM leukemia = test system: CCRF-CEM leukemia
ACHN renal = test system: ACHN renal
SF-268 CNS = test system: SF-268 CNS
KM12 colon = test system: KM12 colon
786-0 renal = test system: 786-0 renal
SF-295 CNS = test system: SF-295 CNS
SK-OV-3 ovarian = test system: SK-OV-3 ovarian
HT29 colon = test system: HT29 colon
EKVX NSCLC = test system: EKVX NSCLC
T-47D breast = test system: T-47D breast
NCI-H460 NSCLC = test system: NCI-H460 NSCLC
IGROV1 ovarian = test system: IGROV1 ovarian
NCI-H522 lung = test system: NCI-H522 lung
MDA-MB-231 breast = test system: MDA-MB-231 breast
SW-620 colon = test system: SW-620 colon
UACC-62 melanoma = test system: UACC-62 melanoma
NCI-H226 lung = test system: NCI-H226 lung
MALME-3M melanoma = test system: MALME-3M melanoma
CAKI-1 renal = test system: CAKI-1 renal
HCC-2998 colon = test system: HCC-2998 colon
MCF7 breast = test system: MCF7 breast
OVCAR-3 ovarian = test system: OVCAR-3 ovarian
SK-MEL-2 melanoma = test system: SK-MEL-2 melanoma
NCI-H23 lung = test system: NCI-H23 lung
SF-539 CNS = test system: SF-539 CNS
COLO 205 colon = test system: COLO 205 colon
MDA-MB-468 breast = test system: MDA-MB-468 breast
RPMI-8226 leukemia = test system: RPMI-8226 leukemia
BT-549 breast = test system: BT-549 breast
SN12C renal = test system: SN12C renal
MDA-MB-435 melanoma = test system: MDA-MB-435 melanoma
OVCAR-8 ovarian = test system: OVCAR-8 ovarian
SNB-19 CNS = test system: SNB-19 CNS
NCI-H322M lung = test system: NCI-H322M lung
SK-MEL-5 melanoma = test system: SK-MEL-5 melanoma
HOP-62 NSCLC = test system: HOP-62 NSCLC
MOLT-4 leukemia = test system: MOLT-4 leukemia
SNB-75 CNS = test system: SNB-75 CNS
PC-3 prostate = test system: PC-3 prostate
SK-MEL-28 melanoma = test system: SK-MEL-28 melanoma
A498 renal = test system: A498 renal
U251 glioblastoma = test system: U251 glioblastoma
OVCAR-4 ovarian = test system: OVCAR-4 ovarian
DU-145 prostate = test system: DU-145 prostate
HL-60(TB) leukemia = test system: HL-60(TB) leukemia
UACC-257 melanoma = test system: UACC-257 melanoma
NCI/ADR-RES ovarian = test system: NCI/ADR-RES ovarian
RXF 393 renal = test system: RXF 393 renal
K-562 leukemia = test system: K-562 leukemia
UO-31 renal = test system: UO-31 renal
LOX IMVI melanoma = test system: LOX IMVI melanoma
HCT-116 colon = test system: HCT-116 colon

## Nc1nc(F)nc2c1ncn2C1OC(CO)C(O)C1O (stereo not drawn)
OVCAR-5 ovarian
  GI50: 34.2 µM
  TGI: > 100 µM
HCT-15 colon
  GI50: 32.2 µM
  TGI: > 100 µM
HS 578T breast
  GI50: 30.6 µM
  TGI: > 100 µM
M14 melanoma
  GI50: 2.6 µM
  TGI: 8.62 µM
SR leukemia
  GI50: > 100 µM
  TGI: > 100 µM
HOP-92 NSCLC
  GI50: 7.81 µM
  TGI: 56.8 µM
TK-10 renal
  GI50: > 100 µM
  TGI: > 100 µM
A549 NSCLC
  GI50: 29.8 µM
  TGI: > 100 µM
CCRF-CEM leukemia
  GI50: 0.316 µM
  TGI: 1.23 µM
ACHN renal
  GI50: 21.7 µM
  TGI: 48.5 µM
SF-268 CNS
  GI50: 19.8 µM
  TGI: 54.7 µM
KM12 colon
  GI50: 26.4 µM
  TGI: > 100 µM
786-0 renal
  GI50: 17.8 µM
  TGI: 56 µM
SF-295 CNS
  GI50: 76.2 µM
  TGI: > 100 µM
SK-OV-3 ovarian
  GI50: 10.1 µM
  TGI: 44.1 µM
HT29 colon
  GI50: 81.4 µM
  TGI: > 100 µM
EKVX NSCLC
  GI50: > 100 µM
  TGI: > 100 µM
T-47D breast
  GI50: 34.9 µM
  TGI: > 100 µM
NCI-H460 NSCLC
  GI50: 16.5 µM
  TGI: 35.8 µM
IGROV1 ovarian
  GI50: 44.8 µM
  TGI: > 100 µM
NCI-H522 lung
  GI50: 4.68 µM
  TGI: 36.9 µM
MDA-MB-231 breast
  GI50: 6.96 µM
  TGI: 47.9 µM
SW-620 colon
  GI50: 49.8 µM
  TGI: > 100 µM
UACC-62 melanoma
  GI50: 28.8 µM
  TGI: 96.8 µM
NCI-H226 lung
  GI50: 95.9 µM
  TGI: > 100 µM
MALME-3M melanoma
  GI50: 1.81 µM
  TGI: 8.06 µM
CAKI-1 renal
  GI50: 17.4 µM
  TGI: 50.3 µM
HCC-2998 colon
  GI50: 2.11 µM
  TGI: 8.44 µM
MCF7 breast
  GI50: 26.6 µM
  TGI: > 100 µM
OVCAR-3 ovarian
  GI50: 7.9 µM
  TGI: > 100 µM
SK-MEL-2 melanoma
  GI50: 4.7 µM
  TGI: 16.6 µM
NCI-H23 lung
  GI50: 3.55 µM
  TGI: 15.7 µM
SF-539 CNS
  GI50: 59 µM
  TGI: > 100 µM
COLO 205 colon
  GI50: 11 µM
  TGI: 37.3 µM
MDA-MB-468 breast
  GI50: 26.5 µM
  TGI: 82.8 µM
RPMI-8226 leukemia
  GI50: 45.1 µM
  TGI: > 100 µM
BT-549 breast
  GI50: 12 µM
  TGI: 46.1 µM
SN12C renal
  GI50: 6.16 µM
  TGI: 24.6 µM
MDA-MB-435 melanoma
  GI50: 12.4 µM
  TGI: > 100 µM
OVCAR-8 ovarian
  GI50: 1.98 µM
  TGI: 4.61 µM
SNB-19 CNS
  GI50: 7.28 µM
  TGI: 42.8 µM
NCI-H322M lung
  GI50: > 100 µM
  TGI: > 100 µM
SK-MEL-5 melanoma
  GI50: 14.1 µM
  TGI: 43.4 µM
HOP-62 NSCLC
  GI50: 5.5 µM
  TGI: 21 µM
MOLT-4 leukemia
  GI50: 1.15 µM
  TGI: 2.37 µM
SNB-75 CNS
  GI50: 23.1 µM
  TGI: > 100 µM
PC-3 prostate
  GI50: 10.8 µM
  TGI: > 100 µM
SK-MEL-28 melanoma
  GI50: 3.11 µM
  TGI: 15.2 µM
A498 renal
  GI50: 19.4 µM
  TGI: 73.7 µM
U251 glioblastoma
  GI50: 36.7 µM
  TGI: > 100 µM
OVCAR-4 ovarian
  GI50: > 100 µM
  TGI: > 100 µM
DU-145 prostate
  GI50: 15.5 µM
  TGI: 57.5 µM
HL-60(TB) leukemia
  GI50: 2.12 µM
  TGI: 3.75 µM
UACC-257 melanoma
  GI50: 50.8 µM
  TGI: > 100 µM
NCI/ADR-RES ovarian
  GI50: 2.34 µM
  TGI: 6.41 µM
RXF 393 renal
  GI50: 44.2 µM
  TGI: > 100 µM

## CCc1nc(C(N)=O)c(Nc2ccc(N3CCC(N4CCN(C)CC4)CC3)c(OC)c2)nc1NC1CCOCC1
OVCAR-5 ovarian
  GI50: 0.503 µM and 0.216 µM
HCT-15 colon
  GI50: 0.458 µM and 0.318 µM
  TGI: > 100 µM
HS 578T breast
  GI50: 1.18 µM
  TGI: 3.54 µM
M14 melanoma
  GI50: 0.402 µM and 0.239 µM
  TGI: 1.79 µM and 1.16 µM
HOP-92 NSCLC
  GI50: 0.114 µM and 0.0363 µM
  TGI: 0.608 µM and 0.213 µM
TK-10 renal
  GI50: 1.68 µM and 0.818 µM
A549 NSCLC
  GI50: 0.533 µM and 0.259 µM
CCRF-CEM leukemia
  GI50: 1.73 µM and 0.828 µM
  TGI: 3.39 µM and 2.1 µM
ACHN renal
  GI50: 0.593 µM and 0.391 µM
  TGI: > 100 µM
SF-268 CNS
  GI50: 2.19 µM and 1.36 µM
  TGI: > 26.5 µM
KM12 colon
  GI50: 0.0353 µM and 0.0165 µM
786-0 renal
  GI50: 1.03 µM and 0.313 µM
  TGI: 5.87 µM and 1.58 µM
SF-295 CNS
  GI50: 4.62 µM and 1.04 µM
  TGI: > 20.9 µM and 3.07 µM
SK-OV-3 ovarian
  GI50: 0.339 µM and 0.16 µM
HT29 colon
  GI50: 0.282 µM and 0.174 µM
EKVX NSCLC
  GI50: 0.463 µM
  TGI: 99.3 µM
T-47D breast
  TGI: > 100 µM
NCI-H460 NSCLC
  GI50: 0.465 µM and 0.292 µM
IGROV1 ovarian
  GI50: 0.335 µM and 0.179 µM
  TGI: 1.62 µM and 0.484 µM
MDA-MB-231 breast
  GI50: 0.474 µM and 0.37 µM
  TGI: 2.57 µM and 1.76 µM
SW-620 colon
  GI50: 0.587 µM and 0.444 µM
  TGI: 2.07 µM and 1.58 µM
UACC-62 melanoma
  GI50: 0.396 µM and 0.214 µM
  TGI: 1.32 µM
NCI-H226 lung
  GI50: 0.584 µM and 0.593 µM
  TGI: 4.61 µM
MALME-3M melanoma
  GI50: 0.302 µM and 0.155 µM
  TGI: 1.7 µM and 1.06 µM
K-562 leukemia
  GI50: 1.25 µM
  TGI: 3.94 µM
CAKI-1 renal
  GI50: 0.247 µM and 0.155 µM
  TGI: 0.556 µM
HCC-2998 colon
  GI50: 0.18 µM and 0.253 µM
  TGI: 5.55 µM and 3.08 µM
MCF7 breast
  GI50: 0.383 µM and 0.247 µM
OVCAR-3 ovarian
  GI50: 1.17 µM and 0.584 µM
  TGI: > 25.6 µM and 4.32 µM
SK-MEL-2 melanoma
  GI50: 0.242 µM
  TGI: 1.3 µM
NCI-H23 lung
  GI50: 0.3 µM and 0.123 µM
  TGI: 5.54 µM and 0.617 µM
SF-539 CNS
  GI50: 1.91 µM and 0.638 µM
  TGI: 6.72 µM and 2.32 µM
COLO 205 colon
  GI50: 0.495 µM and 0.303 µM
  TGI: 5.23 µM and 1.1 µM
MDA-MB-468 breast
  GI50: 2.15 µM
RPMI-8226 leukemia
  GI50: 0.975 µM and 0.255 µM
  TGI: 4.2 µM and 0.984 µM
UO-31 renal
  GI50: 0.457 µM and 0.231 µM
BT-549 breast
  GI50: 0.551 µM and 0.339 µM
  TGI: 2.58 µM and 1.73 µM
SN12C renal
  GI50: 0.168 µM and 0.0671 µM
  TGI: > 100 µM
MDA-MB-435 melanoma
  GI50: 0.704 µM and 0.329 µM
  TGI: > 100 µM
OVCAR-8 ovarian
  GI50: 5.1 µM and 0.758 µM
  TGI: > 100 µM
LOX IMVI melanoma
  GI50: 0.775 µM and 0.371 µM
SNB-19 CNS
  GI50: 3.39 µM and 1.08 µM
  TGI: > 100 µM
NCI-H322M lung
  GI50: 0.674 µM and 0.246 µM
HCT-116 colon
  GI50: 0.494 µM and 0.294 µM
  TGI: 5.95 µM and 3.07 µM
SK-MEL-5 melanoma
  GI50: 0.661 µM and 0.406 µM
  TGI: > 100 µM
HOP-62 NSCLC
  GI50: 1.23 µM and 0.392 µM
MOLT-4 leukemia
  GI50: 0.371 µM and 0.191 µM
  TGI: 1.33 µM and 0.375 µM
SNB-75 CNS
  GI50: 1.36 µM
  TGI: 4.16 µM
PC-3 prostate
  GI50: 0.385 µM and 0.672 µM
  TGI: > 100 µM
SK-MEL-28 melanoma
  GI50: 0.227 µM
  TGI: 0.986 µM
A498 renal
  GI50: 0.619 µM and 0.283 µM
U251 glioblastoma
  GI50: 6.48 µM and 0.834 µM
OVCAR-4 ovarian
  GI50: > 100 µM
  TGI: > 100 µM
DU-145 prostate
  GI50: 0.491 µM and 0.322 µM
HL-60(TB) leukemia
  GI50: 0.357 µM and 0.185 µM
  TGI: 1.03 µM and 0.403 µM
NCI/ADR-RES ovarian
  GI50: 3.26 µM and 2.24 µM
  TGI: > 100 µM
RXF 393 renal
  GI50: 1.17 µM and 0.208 µM
